Experimental data reported in PubChem BioAssay (NCI).
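Method: 48-hour compound exposure of cells in 96-well plates, five concentrations, linear interpolation of endpoints. At the TGI there is no net growth.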

Columns and labels:
Experiment in all cases: DTP human tumour cell line panel, 48 h
[1] = system: 786-0 renal
[2] = system: NCI-H23 lung
[3] = system: TK-10 renal
[4] = system: CAKI-1 renal
[5] = system: OVCAR-3 ovarian
[6] = system: BT-549 breast
[7] = system: HCT-116 colon
[8] = system: SK-MEL-5 melanoma
[9] = system: UO-31 renal
[10] = system: UACC-257 melanoma
[11] = system: HCC-2998 colon
[12] = system: SF-268 CNS
[13] = system: HS 578T breast
[14] = system: SN12C renal
[15] = system: A549 NSCLC
[16] = system: HOP-62 NSCLC
[17] = system: PC-3 prostate
[18] = system: T-47D breast
[19] = system: HOP-92 NSCLC
[20] = system: COLO 205 colon
[21] = system: SW-620 colon
[22] = system: SF-539 CNS
[23] = system: MDA-MB-435
[24] = system: NCI-H460 lung
[25] = system: SR leukemia
[26] = system: MOLT-4 leukemia
[27] = system: SNB-75 CNS
[28] = system: NCI-H522 lung
[29] = system: MCF7 breast
[30] = system: MALME-3M melanoma
[31] = system: SK-OV-3 ovarian
[32] = system: OVCAR-4 ovarian
[33] = system: NCI-H226 lung
[34] = system: U251 CNS
[35] = system: HCT-15 colon
[36] = system: ACHN renal
[37] = system: OVCAR-5 ovarian
[38] = system: CCRF-CEM leukemia
[39] = system: KM12 colon
[40] = system: RPMI-8226 leukemia
[41] = system: M14 melanoma
[42] = system: IGROV1 ovarian
[43] = system: UACC-62 melanoma
[44] = system: K-562 leukemia
[45] = system: OVCAR-8 ovarian
[46] = system: NCI/ADR-RES ovarian
[47] = system: HT29 colon
[48] = system: DU-145 prostate
[49] = system: SK-MEL-28 melanoma
[50] = system: SK-MEL-2 melanoma
[51] = system: LOX IMVI melanoma
[52] = system: RXF 393 renal
[53] = system: A498 renal
[54] = system: SF-295 CNS
[55] = system: HL-60(TB) leukemia
[56] = system: MDA-MB-231 breast
[57] = system: EKVX NSCLC
[58] = system: SNB-19 CNS
[59] = system: MDA-N

Measured: TGI

COc1ccccc1C(=O)NCC1CCCN2CCCCC12 (centres undefined)
> 100 µM: [1] | [2] | [3] | [4] | [5] | [6] | [7] | [8] | [9] | [10] | [11] | [12] | [13] | [14] | [15] | [16] | [17] | [18] | [19] | [20] | [21] | [22] | [23] | [24] | [25] | [26] | [27] | [28] | [29] | [30] | [31] | [32] | [33] | [34] | [35] | [36] | [37] | [38] | [39] | [40] | [41] | [42] | [43] | [44] | [45] | [46] | [47] | [48] | [49] | [50] | [51] | [52] | [53] | [54] | [55] | [56] | [57] | [58] | [59]
